Patent publication US9180106B2, “Sigma receptors ligands with anti-apoptotic and/or pro-apoptotic properties, over cellular mechanisms, exhibiting prototypical cytoprotective and also anti-cancer activity” (Anavex Life Sciences Corp., priority 2009, dated 2015)
Each block holds one compound with its values, some of them ahead of it.

Columns and labels:
σ-2 receptors = σ-2 receptors (Homo sapiens, UniProt Q5BJF2); experiment: affinity for σ-2 receptors; type: binding
[1] = test system: scopolamine and dizocilpine (MK-801) induced amnesia or amyloid peptide β25-35 (Aβ25-35); experiment: anti-amnesic action in mice; type: in vivo; details: per os (po)
Method: The above molecular profile is the basis for AE14 modulatory role over the G-protein coupled receptors (GPCRs) and its pharmacological properties: anti-amnesic action (antagonistic action against scopolamine and dizocilpine (MK-801) induced amnesia or amyloid peptide β25-35 (Aβ25-35), at low doses (from 0.03 mg/kg administered per os (po), in mice). This unique new profile of AE14: anti-apoptotic via agonistic sigma-1 regulation of the volume regulated chloride channels (VRCC), anti-oxidative stress via agonistic action on the sigma-1 receptors of the ER-mitochondrion.

σ-1 receptors [2] = biological target: T1, σ-1 receptors (Homo sapiens, UniProt Q99720); experiment: affinity for σ-1 receptors; type: binding; details: read-out: affinity for σ-1 receptors (pKi) (converted)
T1 sequence (Q99720 whole entry): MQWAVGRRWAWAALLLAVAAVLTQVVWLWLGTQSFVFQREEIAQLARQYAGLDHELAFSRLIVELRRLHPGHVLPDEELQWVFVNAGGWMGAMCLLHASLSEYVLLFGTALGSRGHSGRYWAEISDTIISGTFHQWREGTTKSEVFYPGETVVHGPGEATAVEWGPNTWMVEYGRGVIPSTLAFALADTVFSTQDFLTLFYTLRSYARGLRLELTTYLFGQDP

ER stress = experiment: protocols of acute or chronic ER and cellular stress, in vitro and in vivo; design: species or system mice
PTZ-induced tonic crises = experiment: protection against pentylenetetrazole (PTZ) induced stress and tonic crises; details: in vitro or in vivo, on mice
σ-1 receptors [3] = biological target: T1, σ-1 receptors; experiment: agonistic/antagonistic action on σ-1 receptors
[4] = test system: cancer cells: colorectal, prostate, ovarian renal, pancreas, lung, gliomas, glioblastomas leukemia, lymphomas, melanomas, sarcomas and hepatoma
[5] = test system: primary (drug resistant) melanoma; experiment: in vivo anticancer activity in mice xenografts
Text: All molecules present strong chemical affinities (sub-nanomolar to micromolar) for α-1 receptors with antagonistic action (except AdAE and AdPhAE which are weak agonists) and with nanomolar to micromolar affinities for α-2 receptors and agonistic action. Therefore, all molecules above and their derivatives are pro-apoptotic and only at very low concentrations or doses are anti-apoptotic. All molecules above are toxic to the cancer cells: colorectal, prostate, ovarian renal, pancreas, lung, gliomas, glioblastomas leukemia, lymphomas, melanomas, sarcomas and hepatoma, with antiproliferative and cytotoxic concentrations usually lower than 10 microMolar (μM), for more than 50 of the above derivatives. […] The pharmacological profile of the above molecules is totally prototypical and original giving the possibility of a therapeutic synergy with the clinically used anticancer drugs with simultaneous antagonism and protection against the most grave secondary effects i.e., neuropathic pain and disability induced by the clinically used anticancer drugs.

[6] = test system: primary (drug resistant) melanoma; experiment: in vitro cytotoxicity, primary melanoma; type: cell-based
glioblastomas = experiment: in vitro cytotoxicity, glioblastomas; type: cell-based
breast = experiment: in vitro cytotoxicity, breast; type: cell-based
colon = experiment: in vitro cytotoxicity, colon; type: cell-based
lung = experiment: in vitro cytotoxicity, lung; type: cell-based
leukaemia = experiment: in vitro cytotoxicity, leukaemia; type: cell-based

Sequence of σ-2 receptors (Q5BJF2 whole entry): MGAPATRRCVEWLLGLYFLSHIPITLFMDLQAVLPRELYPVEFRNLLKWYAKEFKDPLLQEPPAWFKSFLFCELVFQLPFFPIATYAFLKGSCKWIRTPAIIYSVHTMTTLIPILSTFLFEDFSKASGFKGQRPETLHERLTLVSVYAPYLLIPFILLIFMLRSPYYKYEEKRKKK

Ki (σ-2 receptors): > 10000 nM
affinity for σ-2 receptors, times lower than for σ-1 (σ-2 receptors; σ-2 versus σ-1): more than 100 times
Ki (σ-1 receptors [2]): 25.1 nM
SMILES: CN(C)CC1COC(c2ccccc2)(c2ccccc2)C1 (centres unmarked) [AE14, Tetrahydro-N,N,-Dimethyl-5,5-Diphenyl-3-Furanomethanamine]
anti-amnesic action, active doses [1]: ≥ 0.03 mg/kg
effect on ER stress (ER stress; acute or chronic cellular stress, oligopeptides or streptozocin, in vitro and in vivo on mice): antagonized the ER stress

SMILES: CNCC1CCOC1(c1ccccc1)c1ccccc1 (centres unmarked) [AE37 Met, Tetrahydro-N-Methyl-2,2-Diphenyl-3-Furanomethanamine]
protection against ER-mitochondrion anoxia and oxidative stress caused by PTZ (PTZ-induced tonic crises): exceptional protection
activity relative to AE37 (ER stress; for the properties mentioned for AE37): slightly more active than AE37

affinity for σ-2 receptors (σ-2 receptors): no affinity
action on σ-1 receptors (σ-1 receptors [3]): selective σ-1 agonist
Ki (σ-1 receptors [2]): 501 nM
SMILES: CN(C)CC1CCOC1(c1ccccc1)c1ccccc1 (centres unmarked) [AE37, Tetrahydro-N,N-Dtiviethyl-2,2-Dinienyl-3-Furanomethanamine]
anti-apoptotic properties (ER stress; chronic ER and cellular stress, in vitro and in vivo on mice): high anti-apoptotic properties

SMILES: COc1ccc(CCN2CCC(Nc3nc4ccccc4n3Cc3ccc(F)cc3)CC2)cc1 [AST, Astemizole]
cytotoxicity, in vitro [4]: 3.0 to 5.0 µM

action on σ-1 receptors (σ-1 receptors [3]): weak agonists
SMILES: CN(C)CC1COC2(C1)C1CC3CC(C1)CC2C3 (centres unmarked) [AdAE, (DIHYDRO-4-(DIMETHYLAMINOMETHYL)SPIRO {FURANE-2(3H),2′-TRICYCLO[3.3.1.13,7]DECANE}]

action on σ-1 receptors (σ-1 receptors [3]): weak agonists
SMILES: CN(C)CC1COC(c2ccccc2)(C23CC4CC(CC(C4)C2)C3)C1 (centres unmarked) [AdPhAE, 5-(TRICYCLO[3.3.1.13,7]DEC-1-YL)-TETRAHYDRO-N,N-DIMETHYL-5-PHENYL-3-FURANEMETHANAMINE]

SMILES: CN(C)/N=N/c1[nH]cnc1C(N)=O [Dacarbazine]
in vivo anticancer activity [5]: inactive

SMILES: CN(C)c1ccc2nc3ccc(=[N+](C)C)cc-3sc2c1 [MB, Methylene blue]
cytotoxicity, in vitro [6]: lower than 1.0 μM
cytotoxicity, in vitro (glioblastomas): ~2.0 µM
cytotoxicity, in vitro (breast): ~2.0 µM
cytotoxicity, in vitro (colon): ~2.0 µM
cytotoxicity, in vitro (lung): lower than 1.0 μM
cytotoxicity, in vitro (leukaemia): lower than 1.0 μM
in vivo anticancer activity [5]: confirmed in vivo

SMILES: CCN(CC)CCCC(C)Nc1c2ccc(Cl)cc2nc2ccc(OC)cc12 (centres unmarked) [QNC, Quinacrine]
in vivo anticancer activity [5]: outstanding in vivo activity
